The values that follow come from PubChem BioAssay (NCI).

Among the test systems are HOP-62 NSCLC; SR leukemia; OVCAR-3 ovarian; CCRF-CEM leukemia; TK-10 renal; NCI-H522 lung; NCI-H226 lung; MDA-N; RPMI-8226 leukemia; SNB-75 CNS; UO-31 renal; EKVX NSCLC.
Holding throughout (experiment): inhibition of tumour cell growth, NCI panel, 48 h

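Interpolation was linear, between the two tested concentrations surrounding the appropriate level; five concentrations were tested over 48 hours in 96-well plates. Definition used: TGI = concentration required for complete inhibition of growth.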

Take `CC(=O)OC(CCC1(C)OC1COc1ccc(CCNC(=O)C=C(C)C)cc1)C(C)(C)OC(C)=O` (configuration not stated): the TGI is greater than 100 µM in the assay with HOP-62 NSCLC; greater than 74.4 µM in the assay with SR leukemia; greater than 100 µM in the assay with OVCAR-3 ovarian; greater than 92.7 µM in the assay on CCRF-CEM leukemia; greater than 100 µM with TK-10 renal; greater than 100 µM in the assay on NCI-H522 lung. Besides, the TGI in the assay on NCI-H226 lung is greater than 100 µM; in the assay on MDA-N, 51.9 µM; with RPMI-8226 leukemia, 60.7 µM; in the assay with SNB-75 CNS it was 98.1 µM; with UO-31 renal, greater than 100 µM; with EKVX NSCLC, greater than 100 µM.
